From patent publication US20060069132A1, “Azolecarboxamide herbicides” (priority 2004, published 2006)

Tests used:
[1] = tested on: ducksalad; assay: Test B flooded paddy test; format: in vivo, Heteranthera limosa; conditions: 1000 g ai/ha, scale 0 to 100 (0 no effect, 100 complete control)
How it was run: (§1)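 Each value is a visual 0–100 response rating taken against controls 13 to 15 days after treatment in the greenhouse. Plants received formulated chemical postemergence at the 1- to 4-leaf stage or, in flooded paddy, at the 2-leaf stage.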

[2] = tested on: corn; assay: Test B pre-/postemergence herbicide test; format: in vivo, Zea mays
How it was run: (§2)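 Evaluation is visual, comparing treated with control plants on a scale where 0 means no effect and 100 means full control. Treatments were preemergence, or postemergence on seedlings 2–18 cm tall, and held 13–15 days in the greenhouse.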

[3] = tested on: barnyardgrass; assay: Test B flooded paddy test; format: in vivo, Echinochloa crus-galli; conditions: 1000 g ai/ha, scale 0 to 100 (0 no effect, 100 complete control)
How it was run: as §1

[4] = tested on: ducksalad; assay: Test C flooded paddy test; format: in vivo, Heteranthera limosa; conditions: for Plant response rating, Ducksalad: 500 g ai/ha, visual rating after 12 to 14 days
[5] = tested on: blackgrass; assay: Test B postemergence herbicide test; format: in vivo, Alopecurus myosuroides
How it was run: as §1

[6] = tested on: Surinam grass; assay: Test B pre-/postemergence herbicide test; format: in vivo, Urochloa decumbens
How it was run: as §2

[7] = tested on: velvetleaf; assay: Test B pre-/postemergence herbicide test; format: in vivo, Abutilon theophrasti
How it was run: as §2

[8] = tested on: rice; assay: Test C flooded paddy test; format: in vivo, Oryza sativa; conditions: for Plant response rating, Rice: 500 g ai/ha, visual rating after 12 to 14 days
How it was run: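 Plants were grown to the 1- to 4-leaf stage (2–18 cm) and then treated postemergence, or grown to the 2-leaf stage for the flooded paddy test. They were held in a greenhouse for 12 to 14 days and then scored by eye against controls, where 0 is no effect and 100 is complete control.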

[9] = tested on: giant foxtail; assay: Test B pre-/postemergence herbicide test; format: in vivo, Setaria faberi
How it was run: as §2

[10] = tested on: morningglory; assay: Test B pre-/postemergence herbicide test; format: in vivo, Ipomoea coccinea
How it was run: as §2

[11] = tested on: lambsquarters; assay: Test B pre-/postemergence herbicide test; format: in vivo, Chenopodium album
How it was run: as §2

[12] = tested on: wheat; assay: Test B postemergence herbicide test; format: in vivo, Triticum aestivum; design: key to Wheat plant response rating: 0 = no effect, 100 = complete control
How it was run: (§3)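 Postemergence plants were sprayed with formulated test chemicals at 2 to 18 cm height (1- to 4-leaf stage); paddy species were grown to the 2-leaf stage. After 13 to 15 days in a greenhouse, injury was rated visually against untreated controls on a 0–100 scale (0 = no effect, 100 = complete control).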

[13] = tested on: barnyardgrass; assay: Test C flooded paddy test; format: in vivo, Echinochloa crus-galli; conditions: for Plant response rating, Barnyardgrass: 500 g ai/ha, visual rating after 12 to 14 days
How it was run: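 Postemergence sprays applied to plants 2 to 18 cm tall (1- to 4-leaf stage); paddy species grown to 2-leaf stage under flooding. After 12 to 14 days in greenhouse, visual rating versus untreated controls on 0–100 scale (0 no effect, 100 complete control).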

[14] = tested on: small flower umbrella sedge; assay: Test B flooded paddy test; format: in vivo, Cyperus difformis; conditions: 1000 g ai/ha, scale 0 to 100 (0 no effect, 100 complete control)
How it was run: as §1

[15] = tested on: cocklebur; assay: Test B pre-/postemergence herbicide test; format: in vivo, Xanthium strumarium
How it was run: as §2

[16] = tested on: pigweed; assay: Test B pre-/postemergence herbicide test; format: in vivo, Amaranthus retroflexus
How it was run: as §2

[17] = tested on: rice; assay: Test B flooded paddy test; format: in vivo, Oryza sativa; conditions: 1000 g ai/ha, scale 0 to 100 (0 no effect, 100 complete control)
How it was run: as §1

[18] = tested on: smallflower umbrella sedge; assay: Test C flooded paddy test; format: in vivo, Cyperus difformis; conditions: for Plant response rating, Sedge, Umbrella: 500 g ai/ha, visual rating after 12 to 14 days
[19] = tested on: barnyardgrass; assay: Test B pre-/postemergence herbicide test; format: in vivo, Echinochloa crus-galli
How it was run: as §2

[20] = tested on: wild oat; assay: Test B postemergence herbicide test; format: in vivo, Avena fatua
How it was run: as §3

[21] = tested on: large crabgrass; assay: Test B pre-/postemergence herbicide test; format: in vivo, Digitaria sanguinalis
How it was run: as §2

[22] = 125 g ai/ha, 0 is no effect, 100 is complete control, preemergence
[23] = 125 g ai/ha, visual rating, scale 0 (no effect) to 100 (complete control), postemergence
[24] = 500 g ai/ha, visual rating, 0 = no effect, 100 = complete control, preemergence
[25] = postemergence, 500 g ai/ha, scale 0 to 100, 0 is no effect, 100 is complete control
[26] = 125 g ai/ha, scale 0 to 100 (0 no effect, 100 complete control)
[27] = 250 g ai/ha, scale of 0 to 100, 0 is no effect, 100 is complete control
[28] = scale 0 to 100 (0 no effect, 100 complete control)
[29] = 62 g ai/ha, scale 0 to 100 (0 no effect, 100 complete control)
[30] = Postemergence, 250 g ai/ha, scale 0 (no effect) to 100 (complete control)
[31] = postemergence, 62 g ai/ha, scale 0 to 100

Structure (SMILES): CCOC(=O)c1ccc(F)c(NC(=O)C2CN(C(C)(C)C)N=C2CC)c1 (racemic) [Compound 335]
- Ducksalad plant response rating [1]: 90
- Plant response rating (0 to 100 scale), Corn [2, 22]: 30
- Corn plant response rating [2, 23]: 10
- Plant response rating, Corn [2, 24]: 50
- Corn plant response rating [2, 25]: 20
- Barnyardgrass plant response rating [3]: 60
- Ducksalad plant response rating ([4]; 62 g ai/ha, scale 0 to 100): 0
- Ducksalad plant response rating [4, 26]: 35
- Ducksalad plant response rating [4, 27]: 50
- Plant response rating, Ducksalad [4, 28]: 70
- Blackgrass plant response rating [5, 23]: 10
- Blackgrass plant response rating [5, 25]: 30
- Plant response rating (0 to 100 scale), Surinam Grass [6, 22]: 30
- Surinam Grass plant response rating [6, 23]: 10
- Plant response rating, Surinam Grass [6, 24]: 40
- Surinam Grass plant response rating [6, 25]: 30
- Plant response rating (0 to 100 scale), Velvetleaf [7, 22]: 40
- Velvetleaf plant response rating [7, 23]: 30
- Velvetleaf plant response rating [7, 25]: 60
- Rice plant response rating ([8]; 62 g ai/ha, scale 0 to 100): 25
- Rice plant response rating [8, 26]: 25
- Rice plant response rating [8, 27]: 55
- Plant response rating, Rice [8, 28]: 55
- Plant response rating (0 to 100 scale), Foxtail, Giant [9, 22]: 60
- Foxtail, Giant plant response rating [9, 23]: 20
- Plant response rating, Foxtail, Giant [9, 24]: 90
- Foxtail, Giant plant response rating [9, 25]: 40
- Plant response rating (0 to 100 scale), Morningglory [10, 22]: 0
- Morningglory plant response rating [10, 23]: 10
- Plant response rating, Morningglory [10, 24]: 10
- Morningglory plant response rating [10, 25]: 40
- Plant response rating (0 to 100 scale), Lambsquarters [11, 22]: 0
- Lambsquarters plant response rating [11, 23]: 10
- Plant response rating, Lambsquarters [11, 24]: 10
- Lambsquarters plant response rating [11, 25]: 30
- Wheat plant response rating [12, 23]: 10
- Wheat plant response rating [12, 25]: 20
- Barnyardgrass plant response rating [13, 29]: 10
- Barnyardgrass plant response rating [13, 26]: 25
- Barnyardgrass plant response rating [13, 27]: 40
- Plant response rating, Barnyardgrass [13, 28]: 65
- Sedge, Umbrella plant response rating [14]: 80
- Plant response rating (0 to 100 scale), Cocklebur [15, 22]: 0
- Cocklebur plant response rating [15, 23]: 10
- Plant response rating, Cocklebur [15, 24]: 10
- Cocklebur plant response rating [15, 25]: 70
- Plant response rating (0 to 100 scale), Pigweed [16, 22]: 0
- Pigweed plant response rating [16, 23]: 20
- Plant response rating, Pigweed [16, 24]: 10
- Pigweed plant response rating [16, 25]: 70
- Rice plant response rating [17]: 70
- Sedge, Umbrella plant response rating ([18]; 62 g ai/ha, scale 0 to 100): 45
- Sedge, Umbrella plant response rating [18, 26]: 85
- Sedge, Umbrella plant response rating [18, 27]: 90
- Plant response rating, Sedge, Umbrella [18, 28]: 95
- Plant response rating (0 to 100 scale), Barnyardgrass [19, 22]: 50
- Barnyardgrass plant response rating [19, 23]: 0
- Plant response rating, Barnyardgrass [19, 24]: 60
- Barnyardgrass plant response rating [19, 25]: 50
- Oat, Wild plant response rating [20, 23]: 20
- Oat, Wild plant response rating [20, 25]: 40
- Plant response rating (0 to 100 scale), Crabgrass, Large [21, 22]: 50
- Crabgrass, Large plant response rating [21, 23]: 10
- Plant response rating, Crabgrass, Large [21, 24]: 100
- Crabgrass, Large plant response rating [21, 25]: 40

Structure (SMILES): CCNC(=O)c1cccc(NC(=O)c2cn(C(C)(C)C)nc2C(F)(F)F)c1 [Compound 192]
- Ducksalad plant response rating ([1]; visual rating, 13 to 15 days): 80
- Corn plant response rating [2, 30]: 10
- Corn plant response rating [2, 31]: 10
- Barnyardgrass plant response rating ([3]; visual rating, 13 to 15 days): 80
- Ducksalad plant response rating [4, 29]: 0
- Ducksalad plant response rating [4, 26]: 0
- Ducksalad plant response rating [4, 27]: 25
- Plant response rating, Ducksalad [4, 28]: 60
- Blackgrass plant response rating [5, 30]: 0
- Blackgrass plant response rating [5, 31]: 0
- Surinam Grass plant response rating [6, 30]: 10
- Surinam Grass plant response rating [6, 31]: 10
- Velvetleaf plant response rating [7, 30]: 50
- Velvetleaf plant response rating [7, 31]: 20
- Rice plant response rating [8, 29]: 0
- Rice plant response rating [8, 26]: 15
- Rice plant response rating [8, 27]: 45
- Plant response rating, Rice [8, 28]: 70
- Foxtail, Giant plant response rating [9, 30]: 20
- Foxtail, Giant plant response rating [9, 31]: 10
- Morningglory plant response rating [10, 30]: 100
- Morningglory plant response rating [10, 31]: 60
- Lambsquarters plant response rating [11, 30]: 80
- Lambsquarters plant response rating [11, 31]: 70
- Wheat plant response rating ([12]; 250 g ai/ha, scale 0 to 100, 0 no effect, 100 complete control, preemergence): 10
- Wheat plant response rating [12, 30]: 0
- Wheat plant response rating [12, 31]: 0
- Barnyardgrass plant response rating [13, 29]: 0
- Barnyardgrass plant response rating ([13]; 125 g ai/ha, scale of 0 to 100, 0 is no effect, 100 is complete control): 0
- Barnyardgrass plant response rating [13, 27]: 0
- Plant response rating, Barnyardgrass [13, 28]: 70
- Sedge, Umbrella plant response rating ([14]; visual rating, 13 to 15 days): 80
- Cocklebur plant response rating [15, 30]: 60
- Cocklebur plant response rating [15, 31]: 0
- Pigweed plant response rating [16, 30]: 60
- Pigweed plant response rating [16, 31]: 30
- Rice plant response rating ([17]; visual rating, 13 to 15 days): 70
- Sedge, Umbrella plant response rating [18, 29]: 70
- Sedge, Umbrella plant response rating [18, 26]: 75
- Sedge, Umbrella plant response rating [18, 27]: 85
- Plant response rating, Sedge, Umbrella [18, 28]: 90
- Barnyardgrass plant response rating [19, 30]: 10
- Barnyardgrass plant response rating [19, 31]: 0
- Oat, Wild plant response rating [20, 30]: 20
- Oat, Wild plant response rating [20, 31]: 10
- Crabgrass, Large plant response rating [21, 30]: 20
- Crabgrass, Large plant response rating [21, 31]: 10
